Response vs control in vivo and IC50 data for four compounds are collected here from US9067926B2, “Fluoromethyl-5,6-dihydro-4H-[1,3]OXAZINES” (F. Hoffmann-La Roche AG, priority 2012, dated 2015).

The IC50 is the concentration that gives 50% inhibition.

One assay has as its system Aβ40 in brain. Nature of the assay: In vivo inhibition of Aβ40 in brain of wild-type mice. Conditions: Mus musculus, po; 10 mg/kg p.o., brain Aβ40 after 4 h, female C57Bl/6J mice; read-out: in vivo effect, Percentage of control @ 10 mg/kg p.o. The method, then:
In Vivo Experiments. […] The test compound was dissolved in 5% EtOH, 10% Solutol and was applied per os at 10 ml/kg. After 4 h the animals were sacrificed and brain and plasma were collected. The brain was cut into halves and immediately frozen on dry ice. Brain was used for measurement of Aβ40 and plasma was used for determination of compound exposure. […] Brain tissue was homogenized in 2% DEA buffer in a Roche […] (20'', 4000 rpm) and subsequently centrifuged for 1 h at 100'000 g. DEA was reduced to 0.2% in 50 mM NaCl and one half of the DEA lysate was passed over an Oasis Solid Phase extraction plate (Waters; Cat.Nr. 186000679) which had been activated with MeOH and equilibrated in dH2O (1 ml each). After washes in 10% and 30% MeOH (1 ml each) the AP-peptides were eluted in 0.8 ml 2% NH4OH in 90% MeOH. […] Aβ40 was determined by an AlphaLISA assay (Perkin Elmer). In a white 96well half-area microplate (Perkin Elmer Cat.Nr. 6005561), 20 μl of the reconstituted sample were mixed with 5 μl biotinylated BAP-24 (specific for C-terminus of Aβ40 (Brockhaus, M.; Grunberg, J.; Rohrig, S.; Loetscher, H.; Wittenburg, N.; Baumeister, R.; Jacobsen, […]. Caspase-mediated cleavage is not required for the activity of presenilins in amyloidogenesis and NOTCH signaling. […] The mix was incubated for 1 h at RT in the dark. Then 20 μl Streptavin-coated Donor Beads (Perkin Elmer Cat. Nr. 6760002, final dilution 1:125) were added and this final mix was incubated in the dark for another 30 min at r.t. before RFU was measured in an AlphaScreen Reader(Perkin Elmer Envision 2104).

Assay [1] addresses T1, recombinant human cathepsin E (Homo sapiens, UniProt P14091).
T1 construct: purchased R&D Systems
T1 sequence (P14091 54-396): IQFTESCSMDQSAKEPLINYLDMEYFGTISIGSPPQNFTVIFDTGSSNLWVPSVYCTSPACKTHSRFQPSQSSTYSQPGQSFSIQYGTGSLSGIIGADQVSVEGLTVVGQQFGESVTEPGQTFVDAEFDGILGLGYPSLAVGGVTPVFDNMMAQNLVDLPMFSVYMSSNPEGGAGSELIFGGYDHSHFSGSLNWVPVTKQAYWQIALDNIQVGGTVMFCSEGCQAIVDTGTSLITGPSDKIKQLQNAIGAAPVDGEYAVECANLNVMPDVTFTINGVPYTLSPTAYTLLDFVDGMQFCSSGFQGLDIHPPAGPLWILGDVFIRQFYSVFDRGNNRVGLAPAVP
Nature of the assay: Cathepsin E fluorescent substrate kinetic assay. The format is biochemical. Conditions: pH 4.5. The text has this: Cathepsin D and Cathepsin E Fluorescent Substrate Kinetic Assays
The MR121 fluorescence assays described below are based on the fact that MR121 forms a non-fluorescent ground state complex with tryptophan. In solution this formation occurs at millimolar concentrations of tryptophan. The mechanism can be used to design a generic biochemical assay for proteases. […] In absence of protease activity, the substrates remain intact and the MR121 fluorescence is reduced by the high local Trp-concentration. If the substrates are cleaved by the enzymes the MR121 fluorescence is recovered.
The fluorescent substrate cathepsin D and cathepsin E kinetic assays were performed at room temperature in 384-well microtiter plates (black with clear flat bottom, non binding surface plates from Corning) in a final volume of 51 μl. The test compounds were serially diluted in DMSO (15 concentrations, 1/3 dilution steps) and 1 μl of diluted compounds were mixed for 10 min with 40 μl of cathepsin D (from human liver, Calbiochem) diluted in assay buffer (100 mM sodium acetate, 0.05% BSA, pH 5.5; final concentration: 200 nM) or with 40 μl of recombinant human cathepsin E (R&D Systems) diluted in assay buffer (100 mM sodium acetate, 0.05% BSA, pH 4.5; final concentration: 0.01 nM). […] The slope in the linear range of the kinetic was calculated and the IC50 of the test compounds were determined using a four parameter equation for curve fitting.

Structures are written as SMILES.

In the case of `C[C@@]1(c2cc(NC(=O)c3ccc(Cl)cn3)ccc2F)C[C@@H](C(F)(F)F)OC(N)=N1` [Example 2, N-(3-((4S,6S)-2-amino-4-methyl-6-(trifluoromethyl)-5,6-dihydro-4H-1,3-oxazin-4-yl)-4-fluorophenyl)-5-chloropicolinamide], the response vs control in vivo at 10 mg/kg in the assay with Aβ40 in brain was 93%. Also, in assay [1], the IC50 was > 200 µM.
On the same counts, the results for `C[C@@]1(c2cc(NC(=O)c3ccc(OCF)cn3)ccc2F)C[C@@H](C(F)(F)F)OC(N)=N1` [Example 11, N-(3-((4S,6S)-2-Amino-4-methyl-6-(trifluoromethyl)-5,6-dihydro-4H-1,3-oxazin-4-yl)-4-fluorophenyl)-5-(fluoromethoxy)picolinamide] are 87% and > 200 µM.
For `CC#CCOc1cnc(C(=O)Nc2ccc(F)c([C@]3(C)C[C@@H](C(F)(F)F)OC(N)=N3)c2)cn1` [Example 22, N-(3-((4S,6S)-2-Amino-4-methyl-6-(trifluoromethyl)-5,6-dihydro-4H-1,3-oxazin-4-yl)-4-fluorophenyl)-5-(but-2-ynyloxy)pyrazine-2-carboxamide], the response vs control in vivo at 10 mg/kg in the assay on Aβ40 in brain was determined as 83%. The concentration for half-maximal inhibition (IC50) in assay [1] is > 200 µM.
On the same counts, the results for `NC1=N[C@](CF)(c2cc(NC(=O)c3ccc(OCF)cn3)ccc2F)C[C@@H](C(F)(F)F)O1` [Example 35, N-(3-((4S,6S)-2-Amino-4-(fluoromethyl)-6-(trifluoromethyl)-5,6-dihydro-4H-1,3-oxazin-4-yl)-4-fluorophenyl)-5-(fluoromethoxy)picolinamide] are 74% and > 200 µM.
